Experimental data: patent US12303592B2, “Formulations for parenteral delivery of compounds and uses thereof” (Wyeth, LLC, priority 2006, dated 2025)

Test: Stopper compatibility evaluation (Table 14), HPLC Method A; as to RRT 0.38: key: BRL=below recordable limit; as to RRT 0.49: key: BRL=below recordable limit; as to RRT 0.67: key: BRL=below recordable limit; as to RRT 0.79: key: BRL=below recordable limit; as to RRT 0.89: key: BRL=below recordable limit; as to RRT 1.17: key: BRL=below recordable limit; as to RRT 1.55: key: BRL=below recordable limit; as to RRT 1.89: key: BRL=below recordable limit; as to RRT 1.96: key: BRL=below recordable limit; as to RRT 2.01: key: BRL=below recordable limit; as to RRT 2.26: key: BRL=below recordable limit
Assay type: physicochemical
Design: RRT 1.77 / Total / RRT 1.66: unit not given here
Text: Identical preparations prepared as described in Example 4 were stored in parallel in vials having either a 13 mm WPS S2-F451 4432/50 Gray B2-40 Westar RS stopper (West Pharmaceutical Services) or a 13 mm S2-F451 RS D 777-1 RB2 40 stopper (Daikyo Seiko, Ltd) under various conditions. Each of the stoppers has a FluoroTec® fluorocarbon film; the Westar 4432/50 stopper is chlorobutyl rubber, while the RB2-40 RS D 777-1 stopper is bromobutyl rubber. The presence of accumulation of degradant was assessed for each of the configurations (HPLC Method A).

[1] = Control at Room Temperature, 1 hours
[2] = Control at Room Temperature, 4 hours
[3] = RS-D 777-1 B2 40 from Daikyo Seiko Ltd. at 40° C., 1 hours
[4] = RS-D 777-1 B2 40 from Daikyo Seiko Ltd. at 40° C., 4 hours
[5] = RS-D 777-1 B2 40 from Daikyo Seiko Ltd. at Room Temperature, 1 hours
[6] = RS-D 777-1 B2 40 from Daikyo Seiko Ltd. at Room Temperature, 4 hours
[7] = Westar RS stopper (West Pharmaceutical Services) at 40° C., 1 hours
[8] = Westar RS stopper (West Pharmaceutical Services) at 40° C., 4 hours
[9] = Westar RS stopper (West Pharmaceutical Services) at Room Temperature, 1 hours
[10] = Westar RS stopper (West Pharmaceutical Services) at Room Temperature, 4 hours

C[N+]1(CC2CC2)CC[C@]23c4c5ccc(O)c4O[C@H]2C(=O)CC[C@@]3(O)[C@H]1C5 (some centres unmarked) [MNTX, methylnaltrexone bromide]
Initial (Control at 40° C., 1 hours): 20.3 mg | RRT 0.38 (Control at 40° C., 1 hours): BRL | RRT 0.49 (Control at 40° C., 1 hours): BRL | RRT 0.67 (Control at 40° C., 1 hours): BRL | RRT 0.79 (Control at 40° C., 1 hours): BRL | RRT 0.89 (Control at 40° C., 1 hours): BRL | RRT 1.17 (Control at 40° C., 1 hours): BRL | RRT 1.55 (Control at 40° C., 1 hours): BRL | RRT 1.66 (Control at 40° C., 1 hours): 0.12 | RRT 1.77 (Control at 40° C., 1 hours): BRL | RRT 1.89 (Control at 40° C., 1 hours): BRL | RRT 1.96 (Control at 40° C., 1 hours): BRL | RRT 2.01 (Control at 40° C., 1 hours): BRL | RRT 2.26 (Control at 40° C., 1 hours): BRL | Total (Control at 40° C., 1 hours): 0.12 | Initial (Control at 40° C., 4 hours): 20.3 mg | RRT 0.38 (Control at 40° C., 4 hours): BRL | RRT 0.49 (Control at 40° C., 4 hours): BRL | RRT 0.67 (Control at 40° C., 4 hours): BRL | RRT 0.79 (Control at 40° C., 4 hours): BRL | RRT 0.89 (Control at 40° C., 4 hours): BRL | RRT 1.17 (Control at 40° C., 4 hours): BRL | RRT 1.55 (Control at 40° C., 4 hours): BRL | RRT 1.66 (Control at 40° C., 4 hours): 0.12 | RRT 1.77 (Control at 40° C., 4 hours): BRL | RRT 1.89 (Control at 40° C., 4 hours): BRL | RRT 1.96 (Control at 40° C., 4 hours): BRL | RRT 2.01 (Control at 40° C., 4 hours): BRL | RRT 2.26 (Control at 40° C., 4 hours): BRL | Total (Control at 40° C., 4 hours): 0.12 | Initial [1]: 20.1 mg | RRT 0.38 [1]: BRL | RRT 0.49 [1]: BRL | RRT 0.67 [1]: BRL | RRT 0.79 [1]: BRL | RRT 0.89 [1]: BRL | RRT 1.17 [1]: BRL | RRT 1.55 [1]: BRL | RRT 1.66 [1]: 0.12 | RRT 1.77 [1]: BRL | RRT 1.89 [1]: BRL | RRT 1.96 [1]: BRL | RRT 2.01 [1]: BRL | RRT 2.26 [1]: BRL | Total [1]: 0.12 | Initial [2]: 20.0 mg | RRT 0.38 [2]: BRL | RRT 0.49 [2]: BRL | RRT 0.67 [2]: BRL | RRT 0.79 [2]: BRL | RRT 0.89 [2]: BRL | RRT 1.17 [2]: BRL | RRT 1.55 [2]: BRL | RRT 1.66 [2]: 0.12 | RRT 1.77 [2]: BRL | RRT 1.89 [2]: BRL | RRT 1.96 [2]: BRL | RRT 2.01 [2]: BRL | RRT 2.26 [2]: BRL | Total [2]: 0.12 | Initial (Initial): 20.2 mg | RRT 0.38 (Initial): BRL | RRT 0.49 (Initial): BRL | RRT 0.67 (Initial): BRL | RRT 0.79 (Initial): BRL | RRT 0.89 (Initial): BRL | RRT 1.17 (Initial): BRL | RRT 1.55 (Initial): BRL | RRT 1.66 (Initial): 0.12 | RRT 1.77 (Initial): BRL | RRT 1.89 (Initial): BRL | RRT 1.96 (Initial): BRL | RRT 2.01 (Initial): BRL | RRT 2.26 (Initial): BRL | Total (Initial): 0.12 | Initial [3]: 20.1 mg | RRT 0.38 [3]: BRL | RRT 0.49 [3]: BRL | RRT 0.67 [3]: BRL | RRT 0.79 [3]: BRL | RRT 0.89 [3]: BRL | RRT 1.17 [3]: BRL | RRT 1.55 [3]: BRL | RRT 1.66 [3]: 0.12 | RRT 1.77 [3]: 0.05 | RRT 1.89 [3]: BRL | RRT 1.96 [3]: BRL | RRT 2.01 [3]: BRL | RRT 2.26 [3]: BRL | Total [3]: 0.17 | RRT 0.38 [4]: BRL | RRT 0.49 [4]: BRL | RRT 0.67 [4]: BRL | RRT 0.79 [4]: BRL | RRT 0.89 [4]: BRL | RRT 1.17 [4]: BRL | RRT 1.55 [4]: BRL | RRT 1.66 [4]: 0.12 | RRT 1.77 [4]: 0.05 | RRT 1.89 [4]: BRL | RRT 1.96 [4]: BRL | RRT 2.01 [4]: BRL | RRT 2.26 [4]: BRL | Total [4]: 0.17 | Initial [5]: 20.3 mg | RRT 0.38 [5]: BRL | RRT 0.49 [5]: BRL | RRT 0.67 [5]: BRL | RRT 0.79 [5]: BRL | RRT 0.89 [5]: BRL | RRT 1.17 [5]: BRL | RRT 1.55 [5]: BRL | RRT 1.66 [5]: 0.12 | RRT 1.77 [5]: BRL | RRT 1.89 [5]: BRL | RRT 1.96 [5]: BRL | RRT 2.01 [5]: BRL | RRT 2.26 [5]: BRL | Total [5]: 0.12 | Initial [6]: 20.2 mg | RRT 0.38 [6]: BRL | RRT 0.49 [6]: BRL | RRT 0.67 [6]: BRL | RRT 0.79 [6]: BRL | RRT 0.89 [6]: BRL | RRT 1.17 [6]: BRL | RRT 1.55 [6]: BRL | RRT 1.66 [6]: 0.12 | RRT 1.77 [6]: BRL | RRT 1.89 [6]: BRL | RRT 1.96 [6]: BRL | RRT 2.01 [6]: BRL | RRT 2.26 [6]: BRL | Total [6]: 0.12 | Initial [7]: 20.1 mg | RRT 0.38 [7]: BRL | RRT 0.49 [7]: BRL | RRT 0.67 [7]: BRL | RRT 0.79 [7]: BRL | RRT 0.89 [7]: BRL | RRT 1.17 [7]: BRL | RRT 1.55 [7]: BRL | RRT 1.66 [7]: 0.06 | RRT 1.77 [7]: BRL | RRT 1.89 [7]: BRL | RRT 1.96 [7]: BRL | RRT 2.01 [7]: BRL | RRT 2.26 [7]: BRL | Total [7]: 0.06 | Initial [8]: 20.2 mg | RRT 0.38 [8]: BRL | RRT 0.49 [8]: BRL | RRT 0.67 [8]: BRL | RRT 0.79 [8]: BRL | RRT 0.89 [8]: BRL | RRT 1.17 [8]: BRL | RRT 1.55 [8]: BRL | RRT 1.66 [8]: 0.06 | RRT 1.77 [8]: 0.05 | RRT 1.89 [8]: BRL | RRT 1.96 [8]: BRL | RRT 2.01 [8]: BRL | RRT 2.26 [8]: BRL | Total [8]: 0.06 | Initial [9]: 20.3 mg | RRT 0.38 [9]: BRL | RRT 0.49 [9]: BRL | RRT 0.67 [9]: BRL | RRT 0.79 [9]: BRL | RRT 0.89 [9]: BRL | RRT 1.17 [9]: BRL | RRT 1.55 [9]: BRL | RRT 1.66 [9]: 0.06 | RRT 1.77 [9]: BRL | RRT 1.89 [9]: BRL | RRT 1.96 [9]: BRL | RRT 2.01 [9]: BRL | RRT 2.26 [9]: BRL | Total [9]: 0.06 | Initial [10]: 20.1 mg | RRT 0.38 [10]: BRL | RRT 0.49 [10]: BRL | RRT 0.67 [10]: BRL | RRT 0.79 [10]: BRL | RRT 0.89 [10]: BRL | RRT 1.17 [10]: BRL | RRT 1.55 [10]: BRL | RRT 1.66 [10]: 0.06 | RRT 1.77 [10]: BRL | RRT 1.89 [10]: BRL | RRT 1.96 [10]: BRL | RRT 2.01 [10]: BRL | RRT 2.26 [10]: BRL | Total [10]: 0.06
